{"source": "patent US7741283B2", "about": "“Compositions and methods for inhibiting cell proliferation” (St. Louis University, priority 2003, dated 2010)", "key": {"Mv1Lu cells": {"tested_on": "Mv1Lu cells", "assay": "[methyl-3H] thymidine incorporation (DNA synthesis), Mv1Lu cells", "format": "cell-based, mink", "conditions": "IGFBP-3 0.5 μg/ml, Mv1Lu"}, "MEF cells [1]": {"tested_on": "MEF cells", "assay": "[methyl-3H] thymidine incorporation, MEF cells", "format": "cell-based, mouse", "conditions": "IGFBP-3 up to 1 μg/ml", "experimental": "(§1) FIG. 7 depicts the effect of TGF-β1 on DNA synthesis (A), cell growth (B) and PAI-1 expression (C) in MEF and PEA-13 cells. (A) Cells were treated with various concentrations of TGF-β1 as indicated. DNA synthesis was determined by measuring [methyl-^3H] thymidine incorporation into cellular DNA. The [methyl-^3H] thymidine incorporation in cells treated without TGF-β1 (100,861±3,720 and 103,262±6,722 cpm/well for MEF and PEA-13 cells, respectively) was taken as 0% inhibition. The negative values of inhibition indicate mitogenic activity. […] Each datapoint is the mean±S.D. of quadruplicate determinations. […] Data are representative of six similar experiments. (B) Cells were treated with various concentrations of TGF-β1 as indicated. The cell number was counted after a 4 day incubation. […] The negative values of the inhibition indicate the growth stimulatory activity. Each datapoint is the mean±S.D. of quadruplicate determinations. […] Data are representative of four similar experiments. (C) Cells were treated with various concentrations of TGF-β1 as indicated. The PAI-1 expression in these cells was determined by Northern blot analysis. The expression of G3PDH was used as control. The relative levels of the transcripts were quantified by a PhosphoImager. Data are representative of four similar experiments. […]"}, "MEF cells [2]": {"tested_on": "MEF cells", "assay": "Cell growth (cell number), MEF cells", "format": "cell-based, mouse", "conditions": "IGFBP-3 up to 1 μg/ml", "experimental": "as §1, with “The expression of G3PDH was used as control.” left out, “PhosphoImager.” for “PhosphoImager. Data are representative of four similar experiments.”\n(§2) Cells were plated at a density of 1-2×10^4 cells/dish in DMEM containing 1% fetal calf serum. The cell number was counted every day or after a 3-day incubation using a hematocytometer. […]"}, "PEA-13 cells": {"tested_on": "PEA-13 cells", "assay": "Cell growth (cell number), PEA-13 cells", "format": "cell-based, mouse", "conditions": "IGFBP-3 up to 1 μg/ml", "experimental": "as §1, with “The expression of G3PDH was used as control.” left out, “PhosphoImager.” for “PhosphoImager. Data are representative of four similar experiments.”\nas §2"}, "H1299/LRP cells": {"tested_on": "H1299/LRP cells", "assay": "[methyl-3H] thymidine incorporation, H1299/LRP cells", "format": "cell-based, human", "conditions": "various concentrations"}, "H1299/vector cells": {"tested_on": "H1299/vector cells", "assay": "[methyl-3H] thymidine incorporation, H1299/vector cells", "format": "cell-based, human", "conditions": "various concentrations"}, "IRS-2 [3]": {"tested_on": "IRS-2", "assay": "32P metabolic labeling and immunoprecipitation of IRS-2, Mv1Lu cells", "format": "cell-based, mink"}, "IRS-2 [4]": {"tested_on": "IRS-2", "assay": "32P metabolic labeling and immunoprecipitation of IRS-2, DR26 cells", "format": "cell-based, mink", "conditions": "IGFBP-3 1 μg/ml"}, "IRS-2 [5]": {"tested_on": "IRS-2", "assay": "32P metabolic labeling and immunoprecipitation of IRS-2, MB102-16 cells", "format": "cell-based, mink", "conditions": "MB102-16 cells (αIβI); IGFBP-3 1 μg/ml, GM-CSF 1 nM"}, "IRS-2 [6]": {"tested_on": "IRS-2", "assay": "32P metabolic labeling and immunoprecipitation of IRS-2, MB102-9 cells", "format": "cell-based, mink", "conditions": "MB102-9 cells (αIβII); IGFBP-3 1 μg/ml, GM-CSF 1 nM"}, "IRS-2 [7]": {"tested_on": "IRS-2", "assay": "Determination of tyrosine phosphorylation of IRS-2, Mv1Lu cells", "format": "cell-based, mink", "experimental": "FIG. 15 depicts tyrosine phosphorylation of IRS-2 in Mv1Lu cells treated with IGFBP-3 and insulin. Cells were stimulated with or without insulin (10 nM) for 10 min and then treated with or without IGFBP-3 (1 μg/ml) for 1 hr (A). On the other hand, cells pretreated with or without IGFBP-3 (1 μg/ml) for 2 hr and then stimulated with insulin (10 nM) for 10 min (B, lane 1 and lane 2, respectively). In a parallel experiment, cells were treated with insulin (10 nM) in the presence and absence of IGFBP-3 (1 μg/ml) for 2 hr (B, lane 3 and lane 4, respectively). […] The arrow indicates the location of tyrosine-phosphorylated IRS-2.\nMv1Lu cells were plated on 30-mm dishes at a cell density of 4×10^4/cm^2 in DMEM containing 10% fetal calf serum. The cells in serum-free DMEM were pre-treated with IGFBP-3 (1 μg/ml) for 1 or 2 hr and then treated with insulin (10 nM) for 10 min or treated with insulin (10 nM) for 10 min and then treated with IGFBP-3 (1 μg/ml) for a further 2 hr, or treated simultaneously with insulin (10 nM) and IGFBP-3 (1 μg/ml) for 2 hr. The experiments were carried out at 37° C. The cell lysates were subjected to immunoprecipitation using anti-IRS-2 IgG followed by 7.5% SDS-PAGE and Western blot analysis using anti-phosphotryosine IgG and the ECL system (Santa Cruz)."}, "32D/IR/IRS-2 cells": {"tested_on": "32D/IR/IRS-2 cells", "assay": "[methyl-3H] thymidine incorporation, 32D/IR/IRS-2 cells", "format": "cell-based, murine", "conditions": "32D cells expressing IRS-2 and insulin receptor"}, "acidic pH binding sites": {"biological_target": "acidic pH binding sites (Neogale vison, UniProt A0A8C7BSJ2)", "sequence (A0A8C7BSJ2 entry or part of it)": "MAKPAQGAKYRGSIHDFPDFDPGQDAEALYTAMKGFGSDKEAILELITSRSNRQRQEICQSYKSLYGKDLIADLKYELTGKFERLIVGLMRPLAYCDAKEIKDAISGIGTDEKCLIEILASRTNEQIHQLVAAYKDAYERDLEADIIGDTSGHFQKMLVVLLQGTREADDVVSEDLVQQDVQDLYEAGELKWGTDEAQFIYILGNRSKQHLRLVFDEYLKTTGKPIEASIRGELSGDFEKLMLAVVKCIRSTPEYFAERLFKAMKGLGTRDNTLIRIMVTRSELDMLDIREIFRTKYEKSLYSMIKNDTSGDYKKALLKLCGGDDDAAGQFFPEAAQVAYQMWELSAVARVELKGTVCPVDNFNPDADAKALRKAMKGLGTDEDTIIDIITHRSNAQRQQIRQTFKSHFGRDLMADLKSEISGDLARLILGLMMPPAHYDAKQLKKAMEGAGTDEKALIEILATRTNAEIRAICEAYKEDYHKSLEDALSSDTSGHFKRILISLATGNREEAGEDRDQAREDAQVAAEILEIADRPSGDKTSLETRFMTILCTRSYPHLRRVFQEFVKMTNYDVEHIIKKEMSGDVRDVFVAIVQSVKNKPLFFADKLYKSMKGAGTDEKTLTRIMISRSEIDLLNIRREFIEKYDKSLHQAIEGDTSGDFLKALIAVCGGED", "assay": "Specific binding of 125I-ligands to Mv1Lu cells at acidic pH", "parameters": "species or system mink", "conditions": "Mv1Lu cells; EGTA/BAPTA- or GST-RAP-sensitive binding, 0° C."}, "TβR-V/IGFBP-3 receptor": {"biological_target": "TβR-V/IGFBP-3 receptor", "conditions": "Mv1Lu cells; read-out: Kd of IGFBP-3 binding to its receptor; cited from earlier work"}, "R1B cells": {"tested_on": "R1B cells", "conditions": "IGFBP-3 0.5 μg/ml; cited from earlier work"}}, "note": "Where “and” joins values, the source holds several entries; their conditions need not be identical. Identical values can stand only once.", "data": [{"substance": "IGFBP-3: human insulin-like growth factor binding protein-3 expressed in E. Coli", "values": [{"measurement": "Inhibition of DNA synthesis", "setting": "Mv1Lu cells", "value": "~30% and 30-50%"}, {"measurement": "Effect on DNA synthesis", "setting": "MEF cells [1]", "value": "did not appear to have a significant effect"}, {"measurement": "Effect on cell growth", "setting": "MEF cells [2]", "value": "did not appear to have a significant effect"}, {"measurement": "Effect on cell growth", "setting": "PEA-13 cells", "value": "did not appear to have a significant effect"}, {"measurement": "Effect on DNA synthesis", "setting": "H1299/LRP cells", "value": "inhibited"}, {"measurement": "Effect on DNA synthesis", "setting": "H1299/vector cells", "value": "acted as mitogens or growth stimulators"}, {"measurement": "Incubation time after which mobility change of 32P-labeled IRS-2 occurred", "setting": "IRS-2 [3]; IGFBP-3 1 μg/ml, Mv1Lu", "value": 0.5, "unit": "h"}, {"measurement": "Half-optimal concentration (ED50) to induce electrophoretic mobility change of 32P-labeled IRS-2", "setting": "IRS-2 [3]; Mv1Lu cells", "value": "0.1 to 0.3", "unit": "µg/mL"}, {"measurement": "Induction of specific dephosphorylation (mobility change) of 32P-labeled IRS-2", "setting": "IRS-2 [3]; Mv1Lu, IGFBPs 1 μg/ml, TGF-β1 20 pM", "value": "induces specific dephosphorylation"}, {"measurement": "Electrophoretic mobility change of IRS-2 compared with Mv1Lu and R1B cells", "setting": "IRS-2 [4]", "value": "induced a greater increase in electrophoretic mobility"}, {"measurement": "Specific dephosphorylation (mobility change) of IRS-2", "setting": "IRS-2 [5]", "value": "induced specific dephosphorylation"}, {"measurement": "Specific dephosphorylation (mobility change) of IRS-2", "setting": "IRS-2 [6]", "value": "induced specific dephosphorylation"}, {"measurement": "Effect on insulin-stimulated tyrosine phosphorylation of IRS-2", "setting": "IRS-2 [7]; IGFBP-3 pretreatment 2 hr, then insulin 10 nM 10 min", "value": "diminished"}, {"measurement": "Effect on insulin-stimulated tyrosine phosphorylation of IRS-2", "setting": "IRS-2 [7]; insulin 10 nM 10 min, then IGFBP-3 1 μg/ml 1 hr", "value": "failed to affect"}, {"measurement": "Effect on insulin-stimulated tyrosine phosphorylation of IRS-2", "setting": "IRS-2 [7]; simultaneous insulin 10 nM and IGFBP-3 1 μg/ml, 2 hr", "value": "enhancement"}, {"measurement": "Growth inhibitory response (DNA synthesis)", "setting": "32D/IR/IRS-2 cells", "value": "potent growth inhibitory response"}, {"measurement": "pH of optimal/maximal binding", "setting": "acidic pH binding sites", "value": 5}, {"measurement": "Kd", "setting": "TβR-V/IGFBP-3 receptor", "value": 6, "unit": "nM"}, {"measurement": "Inhibition of DNA synthesis", "setting": "R1B cells", "value": "30-50%"}]}]}
